Experimental data from paper PMC8968952, “Modulation of ERCC1-XPF Heterodimerization Inhibition via Structural Modification of Small Molecule Inhibitor Side-Chains” (Frontiers in Oncology, 2022).
“And” between values parts separate entries of the source, which are not always exact repeats. Equal values may be shown once.

Target: T1, ERCC1-XPF (Homo sapiens, UniProt Q92889)
T1 construct: the final purity of the full-length ERCC1-XPF heterodimer was determined to be ~35%; His6; made in house; host or cells: E. coli BL21(DE3)
T1 sequence (Q92889 1-916): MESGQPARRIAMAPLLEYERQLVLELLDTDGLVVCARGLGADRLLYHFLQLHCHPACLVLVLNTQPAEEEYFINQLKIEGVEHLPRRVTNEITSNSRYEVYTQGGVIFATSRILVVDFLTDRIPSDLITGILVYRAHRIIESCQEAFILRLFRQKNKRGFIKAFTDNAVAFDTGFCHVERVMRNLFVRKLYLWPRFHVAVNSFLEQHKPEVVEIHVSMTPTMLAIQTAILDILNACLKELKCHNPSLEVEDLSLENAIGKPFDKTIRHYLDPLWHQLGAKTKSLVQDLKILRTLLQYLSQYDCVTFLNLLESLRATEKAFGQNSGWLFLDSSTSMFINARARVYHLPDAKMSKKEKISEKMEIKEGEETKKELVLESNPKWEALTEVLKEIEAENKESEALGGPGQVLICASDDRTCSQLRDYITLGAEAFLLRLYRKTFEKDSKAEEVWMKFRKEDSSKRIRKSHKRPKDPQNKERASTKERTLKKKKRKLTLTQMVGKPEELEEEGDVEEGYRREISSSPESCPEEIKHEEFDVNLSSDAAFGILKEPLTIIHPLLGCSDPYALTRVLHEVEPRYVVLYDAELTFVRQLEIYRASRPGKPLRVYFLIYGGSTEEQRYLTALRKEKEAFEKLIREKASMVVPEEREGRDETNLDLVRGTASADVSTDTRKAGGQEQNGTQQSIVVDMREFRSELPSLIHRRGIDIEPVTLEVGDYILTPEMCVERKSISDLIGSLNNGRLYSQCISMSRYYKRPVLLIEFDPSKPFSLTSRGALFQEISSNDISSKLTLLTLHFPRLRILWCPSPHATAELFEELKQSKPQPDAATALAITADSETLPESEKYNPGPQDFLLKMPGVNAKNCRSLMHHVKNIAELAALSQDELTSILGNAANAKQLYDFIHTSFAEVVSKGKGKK
Assay: Microplate fluorescence incision assay (endonuclease activity)
Type: biochemical
Excerpt: Recombinant human ERCC1–XPF wild-type protein (containing polyhistidine (His-6) tags) was expressed from a bicistronic plasmid (kindly provided by Dr. Richard Wood, University of Texas MD Anderson Cancer Center, Smithville, TX) in the E. coli BL21(DE3) strain, Following previously described procedures ([70], [78]) the proteins extracted from E. coli were eluted from a ProBond Nickel-Chelating Resin (Thermo Fisher Scientific) and then a Hi-trap heparin column (GE Healthcare). Fractions containing ERCC1–XPF were dialyzed, concentrated, and stored at −80°C in 10 mM HEPES, pH 7.4, 2.5 mM β-mercaptoethanol, 0.01% CHAPS, 0.25 mM EDTA, 50% glycerol, and 25 mM NaCl. Based on polyacrylamide gel separation and Coomassie Blue staining, the final purity of the full-length ERCC1-XPF heterodimer was determined to be ~35%.
We employed a previously described protocol ([60], [70], [78]) in which the incision of the stem–loop substrate [6-FAM-5′-[…](20T)[…]-3′-dabcyl] (100 nM in 50 mM Tris-HCl, pH 8, 20 mM NaCl, 0.5 mM DDT, and 0.75 mM MnCl2) mediated by ERCC1-XPF (25 ng) in a total volume of 20 μL at 25°C was monitored by fluorescence using a FLUOstar Optima fluorimeter (BMG Labtech) with Optima software and excitation and emission wavelengths of 485 and 520 nm, respectively, for 5.5 min. The final concentration of inhibitor in the reaction was 10 μM prepared from a 200 μM stock solution in DMSO. With a molecular weight of 151 KDa for the XPF-ERCC1 heterodimer, a concentration of 25 ng of protein in 20 µl reaction buffer and a purity of 35%, the molar concentration of the enzyme was estimated to be 2.9 nM. Data were plotted using Microsoft Excel 2016.
An in vitro fluorescence-based assay was used to assess the ability of the synthesized compounds to inhibit the endonuclease activity of ERCC1-XPF. This assay has been previously described ([60], [70], [78]) and makes use of a stem-loop DNA substrate with a 5’-FAM fluorescent dye, and a 3’-dabcyl quencher. When ERCC1-XPF can cleave the DNA substrate, a 5’-FAM containing molecule is liberated from the stem-loop (and the quencher) and the fluorescence of the solution increases. The increase of the fluorescence of the solution can be observed in Figure 3A , in the absence of any inhibitor. To determine the influence of the inhibitory compounds, the protein was preincubated for 10 minutes with 10 μM of each inhibitor prior to addition of the substrate.

COc1ccc2nc3cc(Cl)ccc3c(Nc3ccc(O)c(CN4CCN(CCN(C(C)C)C(C)C)CC4)c3)c2c1 [Compound 6]
IC50: 167 nM and 170 nM | inhibition of ERCC1-XPF endonuclease activity (in words, vs control and 4) (10 μM inhibitor, 10 min preincubation): increased inhibition of ERCC1-XPF endonuclease activity relative to 4 | decrease of ERCC1-XPF endonuclease activity (10 μM inhibitor, at 5.5 minutes): 94%
